Laboratory results reported in PubChem BioAssay AID449762 (Southern Research Specialized Biocontainment Screening …, 2010).
Records with an inconclusive call do not appear.

System: M. tuberculosis H37Rv growth inhibition, 7H9 media
Assay: M. tuberculosis growth inhibition, HTS (AID 449762);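 also: bacterial growth assessed after seven days of incubation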
Conditions: for IC90: measured here: IC90 growth inhibition

Row | SMILES | IC50 [µM] | IC90 [µM]
1 | CSC1=NC(C)(C)C=C(/C=C/c2ccc(Cl)cc2)N1 | 21.5 | 44.5
2 | CC(C)(C)C1CCc2c(sc3nc(SCC(N)=O)nc(N)c23)C1 (stereo not given) | 15.4 | 31.8
3 | CN1CCN(Cc2nc3ccccc3c(=O)n2Cc2nc(-c3ccc4ccccc4c3)cs2)CC1 | 22.3 | 25.7
4 | O=C(NCc1ccccn1)C(=O)Nc1nc(C23CC4CC(CC(C4)C2)C3)cs1 | 1.75 | 5.26
5 | CCC(=O)N1c2ccc(S(=O)(=O)CCC(=O)N3CCn4c3nc3ccccc34)cc2CC1C (stereo not given) | 9.28 | 19.5
6 | CCOC(=O)c1cnc2ccc(OCC)cc2c1N1CCN(c2ccccc2)CC1 | 27.1 | > 100
7 | CCCc1cc(-c2nc(N)ncc2-c2ccc3c(c2)OCCCO3)c(O)cc1OC | 48.6 | 54.9
8 | COc1ccc(-c2cc(-c3ccccc3)c(C#N)c(S(C)=O)n2)cc1 (stereo not given) | 15.1 | 29
9 | Oc1ccccc1/C=N/Nc1ccnc(SCc2ccccc2)n1 | 1.43 | 1.55
10 | Cc1ccc(NC(=O)C2=C(O)CCn3c2nc2ccccc23)cc1 | 1.21 | 20.6
11 | O=C(COC(=O)C1CC2CCCC(C1)C2=O)NNC(=O)c1ccccc1F (stereo not given) | 9.47 | > 100
12 | O=c1[nH]c(=O)n(C2CCCO2)cc1F (stereo not given) | 29 | 55.3
13 | CCC1=C(OC(=O)N(CC)CC)N2C(=O)OC(=NCCc3c[nH]c4ccccc34)[C@]2(Cc2ccccc2)[C@H]2C1=CC[C@H]1C(=O)NC(=O)[C@H]12 | 30.7 | 44.8
14 | Cc1ccc(OCCCCNC2CCCC(C)C2C)c(C)c1 (stereo not given) | 21.8 | 24.2
15 | CC(=O)c1ccc(N2CCC(c3cc(-c4ccc(Cl)cc4Cl)n[nH]3)CC2)c([N+](=O)[O-])c1 | 18.2 | 26.1
16 | O=[N+]([O-])c1cccnc1N1CCC(c2cc(-c3cccc(C(F)(F)F)c3)n[nH]2)CC1 | 23.1 | 26.1
17 | Cc1ccc2cc(C)c(N3CCN(c4ccccn4)CC3)nc2c1 | 29.7 | 46.3
18 | COc1cccc(NC(=O)CNC(=O)Cn2cnc3sc4c(c3c2=O)CCCC4)c1 | 36.6 | > 100
19 | CCOC(=O)C1CCCc2c1[nH]c1c(C(N)=O)cccc21 (stereo not given) | 4.13 | 13.2
20 | COc1ccc(Nc2nc(N3CCCCC3)nc3ccccc23)c(OC)c1 | 19.1 | 26.5

Row | SMILES | IC50 [µM] | IC90 [µM]
21 | Cc1ccc(N2CCN(C(=O)c3cn(CC4CCCCC4)nn3)C(C)C2)cc1 (stereo not given) | 4.1 | 12.4
22 | O=C1C2(Cl)C3(Cl)C4(Cl)C(Cl)(Cl)C5(Cl)C3(Cl)C1(Cl)C5(Cl)C24Cl (stereo not given) | 46.7 | 53
23 | Cc1ccc(S(=O)(=O)NC(CC(C)C)C(=O)N2CCN(C/C=C/c3ccccc3)CC2)cc1 (stereo not given) | 46.8 | 52.7
24 | CCCOC(=O)CSc1nc(N2CCOCC2)c2c(c1C#N)CC(C)(C)OC2 | 21.8 | 37.4
25 | O=C(CSc1nc(Nc2ccccc2)nc(N2CCOCC2)n1)Nc1cc(Cl)ccc1O | 44 | > 50
26 | OC(COC(c1ccc(Cl)cc1)c1ccc(Cl)cc1)CN1CCc2ccccc2C1 (stereo not given) | 18.8 | 24.7
27 | CN1CCN(c2ccc(S(=O)(=O)N3CCCCC3)cc2NC(=O)/C=C/c2ccc(Cl)c([N+](=O)[O-])c2)CC1 | 30.4 | 38.7
28 | Oc1ccc(-[n+]2c(-c3ccccc3)cc(-c3ccccc3)cc2-c2ccccc2)cc1 | 11.7 | 18.8
29 | COc1ccc(C)cc1Nc1n[n+](-c2ccccc2)c(-c2c(Cl)cccc2Cl)s1 | 19.6 | 25.9
30 | O=c1oc2ccccc2c(O)c1/C=C1\C=Nc2ccccc21 | 16.6 | 39.8
31 | CCOC(=O)/C(=N/Nc1ccccc1)c1csc(Nc2ccccc2)n1 | 34.6 | > 100
32 | Cc1cccc(N2CCN(CC(=O)Nc3nccs3)CC2)c1C | 16 | 58.5
33 | CC(C)(C)NC(=O)COC(=O)c1cc(Br)ccc1Cl | 27.8 | 65.1
34 | O=C(NNC1CC(=O)N(c2ccc(Br)cc2)C1=O)c1ccccn1 (stereo not given) | 5.9 | 13.6
35 | Cc1ccc(C)c(-c2nn(-c3cc(N4CCN(CCO)CC4)ccc3[N+](=O)[O-])c(=O)c3ccccc23)c1 | 12.7 | 28.7
36 | CC(=O)c1ccc(Sc2nnnn2-c2ccccc2)c([N+](=O)[O-])c1 | 4.48 | 13.3
37 | CCOC(=O)CNC(=O)c1sc2ncnc(N3CCc4ccccc4C3)c2c1C | 53.2 | > 100
38 | O=C(CCc1nnc(CCCc2ccccc2)o1)NCCCC1CCCC1 | 10.5 | 23.1
39 | CN1C(=O)/C(=C/c2cccc(Cl)c2)Sc2ccc(C(=O)N3CCCC3)cc21 | 17.1 | 31
40 | CC1=NN(C(N)=S)C(=O)C1N=Nc1ccc(C)c(Br)c1 (stereo not given) | 11.5 | 19.1

Row | SMILES | IC50 [µM] | IC90 [µM]
41 | Cc1csc(NC(=O)CCCC(=O)O)c1-c1nc2ccccc2s1 | 35.8 | 79.6
42 | COc1ccc(-c2cn(Cc3ccc(C(=O)NCc4ccc(C)cc4)cc3)c(C(C)N)n2)cc1 (stereo not given) | 46.5 | 53.2
43 | COC(=O)c1ccc(COC(=O)CCc2nc(-c3ccccc3)c(-c3ccccc3)o2)cc1 | 21.5 | > 100
44 | COC(=O)[C@H](CC(C)C)NC(=O)c1cc2c(cn1)[nH]c1ccccc12 | 8.55 | 29.2
45 | O=c1c2ccc(Cl)cc2nc(-c2ccc([N+](=O)[O-])cc2)n1O | 82.6 | > 100
46 | CC1(C)Cc2ccccc2C2=NNC(=O)C2=N1 | 11.2 | 21
47 | O=C(NCCN1CCN(c2cccc(Cl)c2)CC1)c1ccc(CSc2nc3ccncc3[nH]2)cc1 | 23.2 | 35.3
48 | Cc1cccc(-c2ncc(CN3CCC(CO)(CCCc4ccccc4)CC3)cn2)c1 | 44.1 | 73.5
49 | Cc1cccc(/C=c2\s/c(=C\C(=O)C(C)(C)C)[nH]c2=O)c1 | 5.66 | 23.6
50 | O=C(CCl)N1CCN2C(=O)c3ccccc3C12c1ccc(Cl)cc1 (stereo not given) | 5.42 | 7.84
51 | Cc1ccc(CNC(=O)c2sc3nc4c(c(C(F)(F)F)c3c2N)CCC4)cc1 | 35.7 | 50.9
52 | CCCCC(O)(CCCC)C(=O)NN(C(=O)CCl)c1ccccc1 | 3.9 | 10.5
53 | O=[N+]([O-])c1ccc(-c2nc(-c3cccs3)c(-c3cccs3)[nH]2)cc1 | 21.7 | > 100
54 | CCN(C[C@H]1N[C@@](Cc2ccccc2)(C(=O)OC)[C@H]2C(=O)N(Cc3ccccc3)C(=O)[C@@H]12)C(=O)Nc1ccc(C(F)(F)F)cc1 | 10.4 | 11.4
55 | Brc1ccc(-c2nc3ncccn3c2Nc2ccc3c(c2)OCCO3)o1 | 59.2 | 90.2
56 | O=C(NC1CCN(C(=O)N2c3ccccc3Sc3ccccc32)CC1)c1ccccc1F | 86.1 | > 100
57 | CCCC(=O)Nc1ccc(C(=O)/C=C/c2ccc(SC)cc2)cc1 | 22.9 | 37.1
58 | O=C(c1cccc(-c2ccco2)c1)N1CCCC(N2CCN(c3ccc(F)cc3)CC2)C1 (stereo not given) | 52.5 | 78.8
59 | O=C(Nc1cccc(-c2nc3ccccc3s2)c1)c1cc(-n2cnnc2)ccc1Cl | 11.6 | 13.1
60 | O=C(CSc1cccc[n+]1[O-])c1cccs1 | 12 | 16.5
